target: T1, HIV-integrase (Human immunodeficiency virus type 1 group M subtype B, UniProt P12497); test: HIV-Integrase Inhibition Activity (SPA bead integration assay with P33 labeled target DNA); format: biochemical; details: recombinant integrase, class symbols; read-out: in vitro activity
T1 construct: Recombinant integrase (0.26 ng) was incubated with the beads
In short: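 Biotinylated substrate DNA on streptavidin SPA beads loaded with recombinant integrase (90 min, 37° C), washed, then inhibitor plus 0.1 fmol P33-labeled target DNA added. Reaction stopped with 10 mM EDTA; integration measured as CPM by scintillation, giving IC50 ranks.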

| Structure (SMILES) | IC50 [nM] |
| --- | --- |
| CN(C)C(=O)C(=O)NC12CCC(CC1)Cn1c2nc(C(=O)NCc2cccc(-c3ccccc3)c2)c(O)c1=O [Example 388] | < 10 |
| CNC(=O)C(=O)NC12CCC(CC1)Cn1c2nc(C(=O)NCc2ccc(F)cc2)c(O)c1=O [Example 61, N-(2-((4-Fluorobenzyl)carbamoyl)-3-hydroxy-4-oxo-6,7,8,9-tetrahydro-7,10-ethanopyrimido[1,2-a]azepin-10(4H)-yl)-N′-methylethanediamide] | < 10 |
| CN1CCN(c2cccc(CNC(=O)c3nc4n(c(=O)c3O)CC3CCC4(NC(=O)C(=O)N(C)C)CC3)c2)CC1 [Example 127, N′-(3-Hydroxy-2-((3-(4-methyl-1-piperazinyl)benzyl)carbamoyl)-4-oxo-6,7,8,9-tetrahydro-7,10-ethanopyrimido[1,2-a]azepin-10(4H)-yl)-N,N-dimethylethanediamide] | 10 to 100 |
| O=C(NC12CCC(CCn3c1nc(C(=O)NCc1ccc(F)cc1)c(O)c3=O)C2)C(=O)N1CCCC1 (stereo not drawn) [Example 200, 8,11-Methano-4H-pyrimido[1,2-a]azocine-2-carboxamide, 11-[[1,2-dioxo-2-(1-pyrrolidinyl)ethyl]amino]-N-[(4-fluorophenyl)methyl]-6,7,8,9,10,11-hexahydro-3-hydroxy-4-oxo] | < 10 |
| Cc1cc(CNC(=O)c2nc3n(c(=O)c2O)CC2CCC3(N(C)C(=O)C(=O)N(C)Cc3cnn(C)c3C)CC2)ccc1F [Example 172, N-((1,5-Dimethyl-1H-pyrazol-4-yl)methyl)-N′-(2-((4-fluoro-3-methylbenzyl)carbamoyl)-3-hydroxy-4-oxo-6,7,8,9-tetrahydro-7,10-ethanopyrimido[1,2-a]azepin-10(4H)-yl)-N,N′-dimethylethanediamide] | < 10 |
| Cc1cc(CNC(=O)c2nc3n(c(=O)c2O)CC2CCC3(N(C)C(=O)C(=O)N(C)CC3CCCO3)CC2)ccc1F (stereo not drawn) [Example 166, N-(2-((4-Fluoro-3-methylbenzyl)carbamoyl)-3-hydroxy-4-oxo-6,7,8,9-tetrahydro-7,10-ethanopyrimido[1,2-a]azepin-10(4H)-yl)-N,N′-dimethyl-N′-(tetrahydro-2-furanylmethyl)ethanediamide] | < 10 |
| CNC(=O)N1CCCC1C(=O)NC12CCC(CC1)Cn1c2nc(C(=O)NCc2ccc(F)cc2)c(O)c1=O (stereo not drawn) [Example 401] | < 10 |
| Cc1cc(CNC(=O)c2nc3n(c(=O)c2O)CC2CCC3(NC(=O)c3cc(-c4cnn(C)c4)on3)CC2)ccc1F [Example 292, 7,10-Ethanopyrimido[1,2-a]azepine-2-carboxamide, N-[(4-fluoro-3-methylphenyl)methyl]-4,6,7,8,9,10-hexahydro-3-hydroxy-10-[[[5-(1-methyl-1H-pyrazol-4-yl)-3-isoxazolyl]carbonyl]amino]-4-oxo-] | < 10 |
| Cc1cc(CNC(=O)c2nc3n(c(=O)c2O)CC2CCC3(NC(=O)[C@@H]3CCN3S(C)(=O)=O)CC2)ccc1F [Example 276, 7,10-Ethanopyrimido[1,2-a]azepine-2-carboxamide, N-[(4-fluoro-3-methylphenyl)methyl]-4,6,7,8,9,10-hexahydro-3-hydroxy-10-[[[(2S)-1-(methylsulfonyl)-2-azetidinyl]carbonyl]amino]-4-oxo-] | < 10 |
| CN(C)C(=O)C(=O)N(C)C12CCC(CC1)Cn1c2nc(C(=O)NCc2ccc(F)c(F)c2)c(O)c1=O [Example 159, N-(2-((3,4-Difluorobenzyl)carbamoyl)-3-hydroxy-4-oxo-6,7,8,9-tetrahydro-7,10-ethanopyrimido[1,2-a]azepin-10(4H)-yl)-N,N′,N′-trimethylethanediamide] | < 10 |
| O=C(NC12CCC(Cn3c1nc(C(=O)NCc1ccc(F)c(Cl)c1)c(O)c3=O)C2)OCc1ccccc1 (stereo not drawn) [Example 194, Carbamic acid, [2-[[[(3-chloro-4-fluorophenyl)methyl]amino]carbonyl]-6,7,8,9-tetrahydro-3-hydroxy-4-oxo-7,10-methanopyrimido[1,2-a]azepin-10(4H)-yl]-, phenylmethyl ester] | < 10 |
| Cc1cc(CNC(=O)c2nc3n(c(=O)c2O)CC2CCC3(NC(=O)[C@@H]3CC(F)(F)CN3S(C)(=O)=O)CC2)ccc1F [Example 290, 7,10-Ethanopyrimido[1,2-a]azepine-2-carboxamide, 10-[[[(2S)-4,4-difluoro-1-(methylsulfonyl)-2-pyrrolidinyl]carbonyl]amino]-N-[(4-fluoro-3-methylphenyl)methyl]-4,6,7,8,9,10-hexahydro-3-hydroxy-4-oxo-] | < 10 |
| O=C(NC12CCC(CC1)Cn1c2nc(C(=O)NCc2ccc(F)cc2)c(O)c1=O)C(=O)N1CCN(C(=O)c2ccccn2)CC1 [Example 140, N-(4-Fluorobenzyl)-3-hydroxy-4-oxo-10-((oxo(4-(2-pyridinylcarbonyl)-1-piperazinyl)acetyl)amino)-4,6,7,8,9,10-hexahydro-7,10-ethanopyrimido[1,2-a]azepine-2-carboxamide] | < 10 |
| CC(NC(=O)c1nc2n(c(=O)c1O)CC1CCC2(NC(=O)C(=O)N(C)C)CC1)c1ccccc1 (stereo not drawn) [Example 366] | < 10 |
| CN(CCF)C(=O)C(=O)NC12CCC(CC1)Cn1c2nc(C(=O)NCc2ccc(F)cc2)c(O)c1=O [Example 52, N′-(2-((4-Fluorobenzyl)carbamoyl)-3-hydroxy-4-oxo-6,7,8,9-tetrahydro-7,10-ethanopyrimido[1,2-a]azepin-10(4H)-yl)-N-(2-fluoroethyl)-N-methylethanediamide] | < 10 |
| O=C(NC12CCC(CC1)Cn1c2nc(C(=O)NCc2ccc(F)cc2)c(O)c1=O)C(=O)N1CCC[C@@H]1CO [Example 87, N-(4-Fluorobenzyl)-3-hydroxy-10-((((2R)-2-(hydroxymethyl)-1-pyrrolidinyl)(oxo)acetyl)amino)-4-oxo-4,6,7,8,9,10-hexahydro-7,10-ethanopyrimido[1,2-a]azepine-2-carboxamide] | < 10 |
| CN(C)C(=O)C(=O)NC12CCC(CC1)Cn1c2nc(C(=O)NCCC2CCCN2C)c(O)c1=O (stereo not drawn) [Example 336] | > 100 |
| O=C(NC12CCC(CC1)Cn1c2nc(C(=O)NCc2ccc(F)cc2)c(O)c1=O)c1ncccn1 [Example 311, 7,10-Ethanopyrimido[1,2-a]azepine-2-carboxamide, N-[(4-fluorophenyl)methyl]-4,6,7,8,9,10-hexahydro-3-hydroxy-4-oxo-10-[(2-pyrimidinylcarbonyl)amino]-] | < 10 |
| Cn1nnc(C(=O)NC23CCC(CC2)Cn2c3nc(C(=O)NCc3ccc(F)cc3)c(O)c2=O)n1 [Example 250, 7,10-Ethanopyrimido[1,2-a]azepine-2-carboxamide, N-[(4-fluorophenyl)methyl]-4,6,7,8,9,10-hexahydro-3-hydroxy-10-[[(2-methyl-2H-tetrazol-5-yl)carbonyl]amino]-4-oxo-] | < 10 |
| CO[C@@H]1C[C@@H](C(=O)NC23CCC(CC2)Cn2c3nc(C(=O)NCc3ccc(F)cc3)c(O)c2=O)N(S(C)(=O)=O)C1 [Example 274, 7,10-Ethanopyrimido[1,2-a]azepine-2-carboxamide, N-[(4-fluorophenyl)methyl]-4,6,7,8,9,10-hexahydro-3-hydroxy-10-[[[(2S,4R)-4-methoxy-1-(methylsulfonyl)-2-pyrrolidinyl]carbonyl]amino]-4-oxo-] | < 10 |
| O=C(NC12CCC(CC1)Cn1c2nc(C(=O)NCc2ccc(F)cc2)c(O)c1=O)C(=O)N1CCN(CCO)CC1 [Example 72, N-(4-Fluorobenzyl)-3-hydroxy-10-(((4-(2-hydroxyethyl)-1-piperazinyl)(oxo)acetyl)amino)-4-oxo-4,6,7,8,9,10-hexahydro-7,10-ethanopyrimido[1,2-a]azepine-2-carboxamide] | < 10 |
| CC(=O)NC12CCC(Cn3c1nc(C(=O)NCc1ccc(F)cc1)c(O)c3=O)C2 (stereo not drawn) [Example 191, 7,10-Methanopyrimido[1,2-a]azepine-2-carboxamide, 10-(acetylamino)-N-[(4-fluorophenyl)methyl]-4,6,7,8,9,10-hexahydro-3-hydroxy-4-oxo-] | < 10 |
| CN(C)C(=O)C(=O)NC12CCC(CC1)Cn1c2nc(C(=O)NCc2ccc(F)cc2F)c(O)c1=O [Example 114, N′-(2-((2,4-Difluorobenzyl)carbamoyl)-3-hydroxy-4-oxo-6,7,8,9-tetrahydro-7,10-ethanopyrimido[1,2-a]azepin-10(4H)-yl)-N,N-dimethylethanediamide] | < 10 |
| CN(CC1CCCO1)C(=O)C(=O)NC12CCC(CC1)Cn1c2nc(C(=O)NCc2ccc(F)cc2)c(O)c1=O (stereo not drawn) [Example 94, N′-(2-((4-Fluorobenzyl)carbamoyl)-3-hydroxy-4-oxo-6,7,8,9-tetrahydro-7,10-ethanopyrimido[1,2-a]azepin-10(4H)-yl)-N-methyl-N-(tetrahydro-2-furanylmethyl)ethanediamide] | < 10 |
| CN(C)C(=O)N1CCN(C(=O)C(=O)NC23CCC(CC2)Cn2c3nc(C(=O)NCc3ccc(F)cc3)c(O)c2=O)CC1 [Example 80, 10-(((4-(Dimethylcarbamoyl)-1-piperazinyl)(oxo)acetyl)amino)-N-(4-fluorobenzyl)-3-hydroxy-4-oxo-4,6,7,8,9,10-hexahydro-7,10-ethanopyrimido[1,2-a]azepine-2-carboxamide] | < 10 |
| CC(=O)N1[C@@H]2C[C@@H]2C[C@H]1C(=O)NC12CCC(CC1)Cn1c2nc(C(=O)NCc2ccc(F)cc2)c(O)c1=O [Example 270, 7,10-Ethanopyrimido[1,2-a]azepine-2-carboxamide, 10-[[[(1R,3S,5R)-2-acetyl-2-azabicyclo[3.1.0]hex-3-yl]carbonyl]amino]-N-[(4-fluorophenyl)methyl]-4,6,7,8,9,10-hexahydro-3-hydroxy-4-oxo-] | < 10 |
| CN(C)C(=O)C(=O)NC12CCC(CC1)Cn1c2nc(C(=O)NCc2ccc(F)cc2-c2ccccc2)c(O)c1=O [Example 307, Ethanediamide, N′-[2-[[[(5-fluoro/[1,1′-biphenyl]-2-yl)methyl]amino]carbonyl]-6,7,8,9-tetrahydro-3-hydroxy-4-oxo-7,10-ethanopyrimido[1,2-a]azepin-10(4H)-yl]-N,N-dimethyl-] | < 10 |

— patent US8129398B2 (priority 2008, dated 2012)
